Data published in patent US20210069083A1, “METHOD FOR IMPROVING SKIN WHITENING POWER OF A SKIN WHITENING AGENT” (Symrise AG, priority 2013, published 2021).

Tested on: B16V mouse melanoma cells
Assay: Depigmentation effect on melanoma cell cultures (inhibition of pigmentation / melanin inhibition)
Type: cell-based
Conditions: for IC50: Mus musculus, B16V cells, 0.3 mM tyrosine and 10 nM α-MSH, 96 h incubation, absorption at 400 nm
Method: B16V mouse melanoma cells are disseminated in a 96-well micro-titre plate in a concentration of 7.5×10^3 cells/well. After cultivation for 24 h at 37° C. and 5% CO2 in RPMI medium, enriched with 10% foetal calf serum, various concentrations of the test substances and 0.3 mM tyrosine and 10 nM α-MSH (α-melanocyte stimulating hormone) are added and incubated for a further 96 h. The maximum concentration of the test substances used corresponds to 0.1 times the value of the IC20 value of the cytotoxicity assay. Only tyrosine and α-MSH are added to the controls. After incubation, sodium hydroxide solution (final concentrations: 1 M) is added to the culture medium and the absorption (A) is measured after 3 h at 400 nm.
The inhibition of pigmentation in the presence of the test compounds was calculated using the following equation:
Inhibition of pigmentation (%)=100−[(Atest compound/Acontrol)×100]
wherein Atest compound=absorption of the wells with test substance and with cells Acontrol=absorption of the wells without test substance, but with cells
From the inhibition of pigmentation (%) in a series of dilutions of test compounds, the IC50 for each test compound is calculated. This is the concentration of a test compound at which pigmentation is inhibited by 50%. The results are compiled in Table 1:
Experimental procedure as described in Example 1. SymWhite® 377 stands for Phenylethyl resorcinol.
The Synergy Index (SI)^1 is calculated according to Kull's equation as follows: […]
with A: individual result of substance A B: individual result of substance B C: result of the mixture of A and B D: percentage of substance Ain the mixture E: percentage of substance B in the mixture ^1 The calculation of the synergy index (SI-value) was carried out on the basis of following literature: D. C. Steinberg, Cosmetics & Toiletries 2000, 115 (11), 59-62 and F. C. Kull et al., Applied Microbiology 1961, 9, 538-541.
In contrast to the given examples in the literature, in which reduced values for A, B and C (i.e. the minimal concentration of inhibition in antimicrobial tests) mean better activity and consequently SI values <1 document a synergistic effect, increasing values of the here analysed melanin inhibition mean better efficacy. According to Kull's equation the evidence for a synergistic effect results for SI values >1. In the experiments with Sclareolide and SyrnWhite® 377 the calculated SI values obviously exceed 1 (experiments 1 and 2). From this it follows that a composition of Sclareolide and SymWhite® 377 constitutes a potent synergistic combination of active ingredients.

| IC50 [µM] | SMILES | Melanin inhibition (Ex. 1, Kull variable A, conc. 3.2 μm) [%] | Melanin inhibition (Ex. 2, Kull variable A, conc. 3.2 μm) [%] | Melanin inhibition (Ex. 1, Kull variable B, conc. 1.6 μm) [%] | Melanin inhibition (Ex. 2, Kull variable B, conc. 1.6 μm) [%] |
| --- | --- | --- | --- | --- | --- |
| 452 | O=c1cc(CO)occ1O [Kojic acid, 5-hydroxy-2-hydroxymethyl-4-pyranone] |  |  |  |  |
| 10.2 | CC1(C)CCC[C@]2(C)C3CC(=O)O[C@]3(C)CC[C@@H]12 (stereo partly drawn) [Sclareolide, (3aR,5aS,9aS,9bR)-decahydro-3a,6,6,9a-tetramethyl-naphtha[2,1-b]furan-2(1H)-one] | 50.0 | 35.8 |  |  |
|  | CC(c1ccccc1)c1ccc(O)cc1O (stereo not shown) [SymWhite ® 377, 4-(1-phenylethyl)1,3-dihydroxybenzene] |  |  | 59.8 | 55.9 |
| 67 | OC[C@H]1O[C@@H](Oc2ccc(O)cc2)[C@H](O)[C@@H](O)[C@@H]1O [beta-Arbutin] |  |  |  |  |
